Source: publication PMC10499603, “Polθ is phosphorylated by PLK1 to repair double-strand breaks in mitosis” (Nature, 2023)
Blank lines part the entries; values can stand above or below the molecule they belong to.

Legend:
[1] = system: Polθ foci formation in RPE-1 cells expressing GFP–Polθ; assay: siRNA screen for ionizing radiation-induced Polθ foci formation; format: cell-based, human; conditions: 10 nM siRNA, 72 h, then 5 Gy, 2 h; cells with at least 5 Polθ foci; median RZ score of the three siRNAs, three replicate experiments
Source text: The Human DDR siRNA library comprising 1,746 single siRNAs representing 582 human genes (3 siRNAs per gene) was obtained from ThermoFisher Scientific (A30089). For controls, siRNAs targeting GL2, kinesin family member 11 (KIF11) and GM130 were used to assess transfection efficacy and induced cell toxicity. FANCD2 siRNA ([…]dT, defined as FANCD2-ctrl in Supplementary Table 1) was used as a positive control inhibiting Polθ foci formation. RPE-1 cells expressing GFP–Polθ (250 cells per well in 384-well plates) were grown overnight. siRNAs were incubated 15 min with 0.05 μl Interferin reagent (Polyplus transfection) and Opti-MEM (ThermoFisher Scientific) prior to being transferred into each 384-well plate wells, to obtain a 10 nM final concentration. Cells were irradiated 72 h after transfection, at a dose of 5 Gy (226 s) with the CIXD irradiator (RadeXp platform, Institut Curie) and incubated at 37 °C, 5% CO2 for 2 h. […] Polθ was then identified as organelles in the nuclei area and quantified by the average intensity of pixels within the defined organelles region. […] Corrected values were normalized as follows: sample median and median absolute deviation (MAD) were calculated from the Interferin-treated population of each internal plate data points (named as Ref pop) and used to compute robust Z-scores[59] […]

Polθ foci in mitosis = Polθ foci in mitosis after siRNA; format: cell-based, human; conditions: siRNA knockdown
Experimental: (§1) Transfection of siRNA oligonucleotides (Eurofins) was performed using Lipofectamine RNAiMax (ThermoFisher Scientific) following the manufacturer’s instructions.
(§2) Cells grown on coverslips were fixed for 15 min in 2% paraformaldehyde, permeabilized for 10 min in 0.5% Triton X-100, blocked for 30 min in BSA 5%, 0.1% Triton X-100, immunostained for 1 h with primary antibodies, 45 min with secondary antibodies (Highly Cross-Adsorbed Secondary Antibodies Alexa Fluor, ThermoFisher Scientific) and mounted Vectashield mounting medium containing DAPI (Vector Laboratories). The same protocol was applied to mitotic cells, which were collected by shake off and centrifuged onto glass slides using a cytospin centrifuge (400g, 5 min) before fixation. […] Biotin azide-EdU click-it reaction was performed after fixation and permeabilization by incubating cells with a mix of Picolyl biotin, CuSO4, THPTA (Jena Bioscience) and sodium ascorbate in PBS for 30 min in the dark followed by an incubation with streptavidin conjugated Alex fluor 647 antibody (ThermoFisher Scientific) during 1 h at room temperature. Images were taken at 60× or 100× magnification using Upright Spinning disk Confocal Microscope (Roper/Zeiss) or at 40× magnification using DeltaVision (Deconvolution) Image Restoration Microscope. […] Images were analysed using the Fiji software. […]

Polθ foci in interphase = Polθ foci in interphase after siRNA; format: cell-based, human; conditions: siRNA knockdown
Experimental: as §1, §2

TOPBP1 = conditions: peptide on streptavidin beads, HeLa nuclear extract 350 μg, 2 h room temperature, immunoblot
Experimental: Peptides were coupled to streptavidin beads in 150 mM NaCl on a rotating wheel at room temperature, for 1 h. Beads were washed twice in 150 mM NaCl prior to use in pull-down assays. Nuclear extracts from HeLa cells (350 μg) or 2 ml of bacteria protein extracts were incubated with 1 nmol of desired streptavidin beads-coupled peptide, on a rotating wheel, for 2 h, at room temperature. After incubation, beads were washed three times using 150 mM NaCl RIPA buffer, and twice using 300 mM NaCl before elution in 2× Laemmli buffer. All buffers used were supplemented with phosphatase and protease inhibitors. Eluted proteins were analysed by SDS–PAGE to identify peptide partners. The same amount of peptides used for pull-downs was loaded into a separate gel, and biotin signal was detected in the migration front. […] 1628-P/S1635-P: biotin-[sequence]pSFIWSGAp[sequence]. S1628/S1635: biotin-[sequence].

PLK1 [2] = assay: In vitro kinase assay of Polθ immunoprecipitates with recombinant PLK1; format: biochemical; conditions: GFP–Polθ immunoprecipitate, recombinant PLK1 50, 100 or 500 ng, 5 μM ATP, [γ-32P]ATP, 30 min, 30 °C, autoradiography
Experimental: Immunoprecipitates of GFP–Polθ (2 h GFP trap at 4 °C, followed by 2 washes with 150 mM NaCl buffer and 1 wash with 300 mM NaCl) or 1.2 μg of RBER-CDC25tide (Reaction Biology, 0590-0000-1) were resuspended in 30 μl kinase buffer (Cell Signaling, 9802) containing 50, 100 or 500 ng of recombinant PLK1 (Reaction Biology, 0183-0000-1) and 5 μM ATP and 5 μCi [γ-^32P]ATP. After incubation for 30 min at 30 °C, reactions were stopped on ice by the addition of 2× Laemmli buffer and boiling for 5 min at 95 °C. Samples were separated on a 4–8% Tris-acetate gel (or 10% SDS–PAGE for the CDC25 positive control), and phosphorylated ^32P-Polθ and CDC25 were detected by autoradiography.

PLK1 [3] = assay: Real-time NMR phosphorylation of Polθ fragments by PLK1; format: biochemical; conditions: SOFAST HMQC series, 298 K, 8 h, PLK1 1:200
Experimental: (§3) The NMR experiments were performed on the Polθ protein fragments (E1424–Q1503) and (E1540–S1660), either ^15N- or ^15N,^13C-labelled, and dissolved in the NMR buffer (with in addition 7% v/v D2O and EDTA-free Protease Inhibitor Cocktail 1× (Roche)). Most experiments were recorded on a 700 MHz Bruker ADVANCE NEO spectrometer equipped with a triple resonance cryogenically cooled probe. ^1HN, ^13Cα, ^13Cβ, ^13CO and ^15N resonance frequencies of the non-phosphorylated fragments were assigned at 283 K using 2D ^1H–^15N SOFAST HMQC, 3D HNCA, 3D HNCACB, 3D CBCA(CO)NH, 3D HNCO, 3D HN(CA)CO and 3D HN(CA)NNH experiments. All 3D experiments were recorded using non uniform sampling (NUS: 40–50%). To monitor phosphorylation by PLK1, either ^15N- or ^15N,^13C-labelled Polθ protein fragments were mixed with PLK1, and a series of 16 2D NMR ^1H-^15N SOFAST HMQC experiments were recorded at 298 K during 8 h, each experiment being a 1,536 × 160 dataset acquired with 80 scans during 30 min[50]. The temperature was then set to 283 K and 2D ^1H–^15N SOFAST HMQC, 3D HNCA, 3D HNCACB, 3D CBCA(CO)NH and 3D HN(CA)NNH experiments were recorded, in order to assign the resonance frequencies of the phosphorylated fragments (here again with NUS at 40–50%). […]

[4] = target: T1, TOPBP1 BRCT7-8 domain, TOPBP1 fragment (1264–1493) (UniProt Q92547 1264-1493); assay: NMR titration; 2D 1H-15N spectra of 15N-labelled Polθ (E1424-Q1503), phosphorylated or not, without and with TOPBP1 BRCT7-8 at a 1:0.5 ratio; 25 mM HEPES, 50 mM NaCl, pH 7; conditions: both partners purified
T1 construct: source: bacteria protein extracts named for the peptide pull-down

TOPBP1 BRCT7-8 = target: T2, TOPBP1 BRCT7-8 (Homo sapiens, UniProt Q92547); assay: 2D NMR of 15N-labelled Polθ fragment with TOPBP1 BRCT7-8; format: binding; conditions: 2D 1H–15N, Polθ fragment:BRCT7-8 1:0.5, 25 mM HEPES, 50 mM NaCl, pH 7
T2 construct: GST (N); TEV cleavage site; made in house; host or cells: E. coli BL21 (DE3) Star
Experimental: as §3

T2 sequence (Q92547 1264-1493): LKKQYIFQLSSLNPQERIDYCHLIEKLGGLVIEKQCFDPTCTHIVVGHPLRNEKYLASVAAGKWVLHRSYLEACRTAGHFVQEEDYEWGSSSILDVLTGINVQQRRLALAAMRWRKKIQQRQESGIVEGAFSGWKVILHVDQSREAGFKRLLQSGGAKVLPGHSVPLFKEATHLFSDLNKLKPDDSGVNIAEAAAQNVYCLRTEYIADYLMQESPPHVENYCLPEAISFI
T1 sequence (Q92547 1264-1493): as above

Molecule: GUCUCCCAGAAGACAGUGAdTdT (sense GUCUCCCAGAAGACAGUGATT; chemistry not fully specified) [MDC1, siRNA targeting MDC1]
Robust z score_corrected_Cells multi-foci_MultiFoci (%) [1]: -2.42
Polθ foci formation in mitosis (Polθ foci in mitosis): prevented the formation of Polθ foci in both interphase and mitosis
Polθ foci formation in interphase (Polθ foci in interphase): prevented the formation of Polθ foci in both interphase and mitosis

Molecule: biotin-GSGTRQNHpSFIWSGApSFDLSPGLQRILDKVSS [1628-P/S1635-P]
interaction with TOPBP1 (TOPBP1): did not interact with TOPBP1

phosphorylation of Polθ by PLK1 (PLK1 [2]): direct phosphorylation of Polθ by PLK1
Molecule: Polθ: DNA polymerase theta
kinetics of Polθ phosphorylation by PLK1 (PLK1 [3]): fast kinetics of Polθ phosphorylation

Molecule: ACAAAUACAUGGCUGGUUAdTdT (guide ACAAAUACAUGGCUGGUUATT; chemistry not fully specified) [TOPBP1, siRNA targeting TOPBP1]
Polθ foci formation in mitosis (Polθ foci in mitosis): suppressed Polθ foci (and filament) formation only in mitosis

binding result [4]: binds
B1: phosphorylated recombinant Polθ fragment (E1424–Q1503) (domain or fragment, human, UniProt O75417 1424-1503, looked up)
chain: EENGLFLKKNEVSVTDSQLNSFLQGYQTQETVKPVILLIPQKRTPTGVEGECLPVPETSLNMSDSLLFDSFSDDYLVKEQ
modifications: 15N-labelled; phosphorylated by PLK1, sites include S1482, S1486, S1488 and S1493
notes: DNA polymerase theta (Polθ), human, residues E1424-Q1503; also called phosphorylated Polθ E1424–Q1503 fragment; Polθ protein fragment F1 (phosphorylated); source: E. coli BL21 (DE3) Star, purified (HisTrap, TEV cleavage, reverse HisTrap), then phosphorylated with PLK1; not shown: GB1, C-terminal, cleaved; His6, C-terminal, cleaved

B2: phosphorylated recombinant Polθ fragment (E1424–Q1503): recombinant Polθ fragment E1424–Q1503 phosphorylated by PLK1 (protein)
chain: EENGLFLKKNEVSVTDSQLNSFLQGYQTQETVKPVILLIPQKRTPTGVEGECLPVPETSLNMSDSLLFDSFSDDYLVKEQ
modifications: 15N-labelled; phosphorylated by PLK1, sites include S1482, S1486, S1488 and S1493; left off: GB1, C-terminal, cleaved | His6, C-terminal, cleaved
NMR signals lost upon addition of TOPBP1 BRCT7-8 (TOPBP1 BRCT7-8): NMR signals corresponding to the Polθ region (p-S1482–L1499) were lost upon addition of BRCT7-8

B3: non-phosphorylated recombinant Polθ (E1424–Q1503): recombinant Polθ fragment E1424–Q1503 from E. coli (protein, UniProt O75417 1424-1503, looked up, fragment)
chain: EENGLFLKKNEVSVTDSQLNSFLQGYQTQETVKPVILLIPQKRTPTGVEGECLPVPETSLNMSDSLLFDSFSDDYLVKEQ
NMR signals lost upon addition of TOPBP1 BRCT7-8 (TOPBP1 BRCT7-8): only a few NMR peaks were lost upon addition of TOPBP1 BRCT7-8

binding result [4]: binds
B4: non-phosphorylated recombinant Polθ fragment (E1424–Q1503) (domain or fragment, human, UniProt O75417 1424-1503, looked up)
chain: EENGLFLKKNEVSVTDSQLNSFLQGYQTQETVKPVILLIPQKRTPTGVEGECLPVPETSLNMSDSLLFDSFSDDYLVKEQ
modifications: 15N-labelled
notes: DNA polymerase theta (Polθ), human, residues E1424-Q1503; also called non-phosphorylated Polθ fragment from Glu1424 to Gln1503; Polθ protein fragment F1; source: E. coli BL21 (DE3) Star, purified (HisTrap, TEV cleavage, reverse HisTrap); not shown: GB1, C-terminal, cleaved; His6, C-terminal, cleaved
